One may read the IC50 as the point on the concentration scale where inhibition reaches its midpoint. High values mean a need for much substance, low ones inhibition by little substance.

2 compounds from ChEMBL document CHEMBL1131616, “TROTEC-1: a new high-affinity ligand for labeling of the dopamine transporter” (J Med Chem, 1998) can be followed below.

Test [1] deals with Sodium-dependent serotonin transporter (Homo sapiens, UniProt P31645). The experiment in a line: The compound was tested in vitro for binding affinity for the serotonin transporter (5-HTT) using competitive binding assay.
Sodium-dependent serotonin transporter, sequence (P31645 whole entry): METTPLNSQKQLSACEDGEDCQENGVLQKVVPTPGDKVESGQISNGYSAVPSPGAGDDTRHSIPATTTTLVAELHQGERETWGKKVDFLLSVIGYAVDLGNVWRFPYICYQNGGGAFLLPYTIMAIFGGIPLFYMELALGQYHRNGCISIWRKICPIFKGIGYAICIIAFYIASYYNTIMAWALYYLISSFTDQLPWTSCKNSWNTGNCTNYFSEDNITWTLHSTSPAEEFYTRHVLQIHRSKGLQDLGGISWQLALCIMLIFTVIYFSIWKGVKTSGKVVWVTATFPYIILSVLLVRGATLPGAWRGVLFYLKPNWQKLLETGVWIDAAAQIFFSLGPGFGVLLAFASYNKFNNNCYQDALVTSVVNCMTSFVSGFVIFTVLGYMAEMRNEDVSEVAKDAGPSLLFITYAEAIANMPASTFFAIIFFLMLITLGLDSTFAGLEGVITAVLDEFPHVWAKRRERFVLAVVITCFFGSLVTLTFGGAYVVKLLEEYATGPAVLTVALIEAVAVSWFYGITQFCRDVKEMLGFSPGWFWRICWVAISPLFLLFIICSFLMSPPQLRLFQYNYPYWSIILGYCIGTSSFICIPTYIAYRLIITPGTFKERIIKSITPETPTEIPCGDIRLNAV
Test [2] addresses Sodium-dependent noradrenaline transporter (Homo sapiens, UniProt P23975). The experiment in a line: The compound was tested in vitro for binding affinity for the norepinephrine transporter (NET) using competitive binding assay.
Test [3] addresses T1, Sodium-dependent dopamine transporter (Homo sapiens, UniProt Q01959). Kind of test: The compound was tested in vitro for high binding affinity for the Dopamine transporter (DAT) using competitive binding assay.
The target in test [4] is T1, Sodium-dependent dopamine transporter. Kind of test: The compound was tested in vitro for low binding affinity for the Dopamine transporter (DAT) using competitive binding assay.

Each structure is given as a SMILES string.

Sodium-dependent noradrenaline transporter, sequence (P23975 whole entry): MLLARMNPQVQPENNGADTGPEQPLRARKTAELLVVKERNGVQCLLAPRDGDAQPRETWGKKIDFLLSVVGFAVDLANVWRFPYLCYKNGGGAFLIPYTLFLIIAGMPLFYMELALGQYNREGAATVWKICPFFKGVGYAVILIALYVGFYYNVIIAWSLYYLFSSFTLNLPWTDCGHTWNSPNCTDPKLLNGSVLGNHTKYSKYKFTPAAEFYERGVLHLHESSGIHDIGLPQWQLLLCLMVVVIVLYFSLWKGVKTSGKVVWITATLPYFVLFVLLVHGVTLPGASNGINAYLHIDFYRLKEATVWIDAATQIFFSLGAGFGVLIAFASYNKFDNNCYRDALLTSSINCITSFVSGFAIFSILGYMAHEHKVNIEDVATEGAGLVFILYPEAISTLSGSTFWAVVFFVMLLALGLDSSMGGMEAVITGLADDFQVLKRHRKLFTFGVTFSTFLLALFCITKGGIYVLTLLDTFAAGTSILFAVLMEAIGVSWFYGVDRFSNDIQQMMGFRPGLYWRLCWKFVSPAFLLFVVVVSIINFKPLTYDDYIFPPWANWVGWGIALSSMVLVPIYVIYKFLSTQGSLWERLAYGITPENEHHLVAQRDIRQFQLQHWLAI
T1 sequence (Q01959 whole entry): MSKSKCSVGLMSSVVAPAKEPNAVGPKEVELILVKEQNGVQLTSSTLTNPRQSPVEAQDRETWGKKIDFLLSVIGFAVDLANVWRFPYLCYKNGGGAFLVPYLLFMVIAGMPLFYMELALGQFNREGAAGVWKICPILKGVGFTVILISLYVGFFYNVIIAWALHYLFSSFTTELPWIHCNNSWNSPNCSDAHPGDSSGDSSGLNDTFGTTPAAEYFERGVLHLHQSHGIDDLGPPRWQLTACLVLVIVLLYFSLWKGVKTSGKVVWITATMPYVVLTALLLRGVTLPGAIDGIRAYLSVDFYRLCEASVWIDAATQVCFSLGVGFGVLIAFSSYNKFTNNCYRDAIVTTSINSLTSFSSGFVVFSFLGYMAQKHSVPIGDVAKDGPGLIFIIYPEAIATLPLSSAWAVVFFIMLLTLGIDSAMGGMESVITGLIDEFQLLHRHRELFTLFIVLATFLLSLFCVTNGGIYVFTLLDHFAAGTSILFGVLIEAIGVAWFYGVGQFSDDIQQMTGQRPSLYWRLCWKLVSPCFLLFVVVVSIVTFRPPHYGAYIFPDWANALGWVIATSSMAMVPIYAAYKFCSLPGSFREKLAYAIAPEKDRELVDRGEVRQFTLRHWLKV

`COC(=O)[C@H]1[C@@H](c2ccc(F)cc2)C[C@H]2CC[C@H]1N2C`: the IC50 in test [1] stood at 759 nM; in test [2] it was 834 nM.
`CSCCSCCC(=O)OC[C@@H]1C2CCC(C[C@@H]1c1ccc(F)cc1)N2C` (stereo partly specified): the IC50 in test [3] stood at 0.227 nM; in test [4], 5.69 nM; in test [1] it was 28.5 nM; in test [2], 16.3 nM.
